Columns and labels:
[1] = HPLC-MS/MS quantification of 9 compounds in plasma of RSV-infected mice after Scutellaria baicalensis Georgi administration; assay type: in vivo, BALB/c mice; design: drug-containing plasma content: unit not given here
Experimental: The study employed a Vanquish high-performance liquid chromatograph for chromatographic separation, with a HALO C18 column (2.1 × 100 mm, 2.7 μm) as the chromatographic column.
Mass spectrometry was performed using a quadrupole-electrostatic field orbitrap desktop mass spectrometer equipped with an electrospray ion source (ESI). The ESI parameters were set as follows: the pyrolysis voltage was 3.0 kV, the auxiliary gas flow rate was 10 mL/min, the ion transport tube temperature was 350 °C, the auxiliary gas temperature was 350 °C, and the sheath gas flow rate was 45 L/min. Quantitative analysis was performed using the selective ion detection (SIM) mode (Table S1).
Male BALB/c mice, aged 2 weeks and weighing 10–12 g, were chosen for this study. They were acclimatized for 2 days and then randomly assigned to one of five groups: blank (C), model (M), positive control ribavirin (Y1), positive control lianhua qingwen granules (Y2), and Scutellaria baicalensis Georgi administration (H1-H12). Each group consisted of six mice, and their weights were recorded. The mice were pre-administered for 2 days, and on the third day, RSV virus (TCID50 = 10^−6) was inoculated through intranasal infection at a volume of 35 μL per mouse. The blank group was inoculated with normal saline of the same volume. After the inoculation of the RSV virus, the blank and model groups were given distilled water by gavage, while the drug-administered groups were given an aqueous extract of Scutellaria baicalensis Georgi (10 µL/g) once a day for 3 days. The mice were observed daily for their mental status, hair color, diet, and body weight. […] It was then centrifuged at 3000 r/min for 10 min, and the upper layer of plasma was stored at −80℃. Lung tissues were weighed, the lung index was calculated, and the lung tissues were stored in the refrigerator at −80 °C for freezing.
The plasma sample (200 μL) was processed in a 5 mL tube. Subsequently, 10 μL of 5% formic acid and 20 μL of 2 mol/L hydrochloric acid were added, followed by vortexing for 1 min with 10 μL of internal standard solution (100 ng/mL tinidazole). The extraction was completed by adding 2000 μL of acetonitrile solvent and vortexing for 2 min. The mixture was then centrifuged at 12,000 r/min at 4 °C for 10 min, and the supernatant solution was collected in a new centrifuge tube. The supernatant solution was dried by nitrogen at room temperature before being redissolved in 50 μL of 70% acetonitrile solution containing 0.1% formic acid. After vortexing for 1 min, the solution was centrifuged at 12,000 r/min at 4 °C for 10 min, and the resulting supernatant was injected for analysis. The injection volume was 3 μL.
The drug-containing plasma at different time points was subjected to sample treatment. The HPLC-MS/MS analysis method was used to quantitatively detect the 9 compounds in the ion detection (SIM) mode. According to the relative peak area value = index peak area/internal standard peak area, the corresponding concentration value was calculated by substituting the standard curve of each component.

[2] = Stability of 9 compounds in mouse plasma under storage conditions; assay type: in vitro ADME; conditions: n = 6; for Stability 3-Freeze-Thaw Cycles RE: 3 times repeated freeze-thaw at −80 °C; for Stability Short-Term RE: 12 h at 4 °C; for Stability Long-Term RE: −20 °C for 20 days
[3] = RSV-infected mice after Scutellaria baicalensis Georgi administration, double peak phenomenon
[4] = male, BALB/c, mouse, in vivo, 0.083 h
[5] = male, BALB/c, mouse, in vivo, 0.167 h
[6] = male, BALB/c, mouse, in vivo, 0.25 h
[7] = male, BALB/c, mouse, in vivo, 0.5 h
[8] = male, BALB/c, mouse, in vivo, 1 h
[9] = male, BALB/c, mouse, in vivo, 2 h
[10] = male, BALB/c, mouse, in vivo, 4 h
[11] = male, BALB/c, mouse, in vivo, 6 h
[12] = male, BALB/c, mouse, in vivo, 8 h
[13] = male, BALB/c, mouse, in vivo, 10 h
[14] = male, BALB/c, mouse, in vivo, 12 h
[15] = male, BALB/c, mouse, in vivo, 24 h
[16] = high QC (20,000 or 10,000 ng/mL)
[17] = RSV-infected mice, 0.083 h after last gavage of Scutellaria baicalensis Georgi extract, mean ± SD, n = 6
[18] = RSV-infected mice, 0.167 h after last gavage of Scutellaria baicalensis Georgi extract, mean ± SD, n = 6
[19] = RSV-infected mice, 0.25 h after last gavage of Scutellaria baicalensis Georgi extract, mean ± SD, n = 6
[20] = RSV-infected mice, 0.5 h after last gavage of Scutellaria baicalensis Georgi extract, mean ± SD, n = 6
[21] = RSV-infected mice, 1 h after last gavage of Scutellaria baicalensis Georgi extract, mean ± SD, n = 6
[22] = RSV-infected mice, 2 h after last gavage of Scutellaria baicalensis Georgi extract, mean ± SD, n = 6
[23] = RSV-infected mice, 4 h after last gavage of Scutellaria baicalensis Georgi extract, mean ± SD, n = 6
[24] = RSV-infected mice, 6 h after last gavage of Scutellaria baicalensis Georgi extract, mean ± SD, n = 6
[25] = RSV-infected mice, 8 h after last gavage of Scutellaria baicalensis Georgi extract, mean ± SD, n = 6
[26] = RSV-infected mice, 10 h after last gavage of Scutellaria baicalensis Georgi extract, mean ± SD, n = 6
[27] = RSV-infected mice, 12 h after last gavage of Scutellaria baicalensis Georgi extract, mean ± SD, n = 6
[28] = RSV-infected mice, 24 h after last gavage of Scutellaria baicalensis Georgi extract, mean ± SD, n = 6

## O=c1cc(-c2ccccc2)oc2cc(O)c(O)c(O)c12 [Baicalein]
[1]; [3]
  time of highest plasma concentration, first peak: 0.167 h
  time of highest plasma concentration, second peak: 6 h
[1]; [4]
  drug-containing plasma content: 235.76± 21.97
[1]; [5]
  drug-containing plasma content: 573.93± 23.68
[1]; [6]
  drug-containing plasma content: 437.59± 15.17
[1]; [7]
  drug-containing plasma content: 243.84± 16.32
[1]; [8]
  drug-containing plasma content: 208.98± 14.58
[1]; [9]
  drug-containing plasma content: 25.73± 5.59
[1]; [10]
  drug-containing plasma content: 43.00± 8.66
[1]; [11]
  drug-containing plasma content: 792.15± 41.3
[1]; [12]
  drug-containing plasma content: 184.80± 29.24
[1]; [13]
  drug-containing plasma content: 120.93± 15.03
[1]; [14]
  drug-containing plasma content: 9.28± 5.01
[1]; [15]
  drug-containing plasma content: 1.42± 5.86

## O=C(O)[C@H]1O[C@@H](Oc2cc3oc(-c4ccccc4)cc(=O)c3c(O)c2O)[C@H](O)[C@@H](O)[C@@H]1O [Baicalin]
[2]; [16]
  Stability 3-Freeze-Thaw Cycles RE: 7.69%
  Stability Short-Term RE: 5.73%
  Stability Long-Term RE: 5.87%
[2]; low QC (12.5 or 25.6 ng/mL)
  Stability 3-Freeze-Thaw Cycles RE: −7.38%
  Stability Short-Term RE: −9.16%
  Stability Long-Term RE: −8.15%
[2]; medium QC (320 or 160 ng/mL)
  Stability 3-Freeze-Thaw Cycles RE: −2.37%
  Stability Short-Term RE: −5.85%
  Stability Long-Term RE: −5.21%
[1]; [3]
  time of highest plasma concentration, first peak: 0.167 h
  time of highest plasma concentration, second peak: 6 h
[1]; [4]
  drug-containing plasma content: 2434.28± 151.56
[1]; [5]
  drug-containing plasma content: 4607.45± 318.09
[1]; [6]
  drug-containing plasma content: 2031.56± 103.57
[1]; [7]
  drug-containing plasma content: 2696.64± 110.33
[1]; [8]
  drug-containing plasma content: 2474.37± 225.92
[1]; [9]
  drug-containing plasma content: 2620.76± 117.82
[1]; [10]
  drug-containing plasma content: 1587.10± 169.68
[1]; [11]
  drug-containing plasma content: 8607.45± 428.09
[1]; [12]
  drug-containing plasma content: 1856.98± 113.03
[1]; [13]
  drug-containing plasma content: 569.32± 20.22
[1]; [14]
  drug-containing plasma content: 39.89± 7.45
[1]; [15]
  drug-containing plasma content: 15.44± 5.62

## O=C(O)[C@H]1O[C@@H](Oc2cc(O)c3c(=O)cc(-c4ccc(O)cc4)oc3c2)[C@H](O)[C@@H](O)[C@@H]1O [Apigenin-7-glucuronide]
[2]; [16]
  Stability 3-Freeze-Thaw Cycles RE: 8.37%
  Stability Short-Term RE: 8.60%
  Stability Long-Term RE: 9.80%
[2]; low QC (12.5 or 25.6 ng/mL)
  Stability 3-Freeze-Thaw Cycles RE: −2.43%
  Stability Short-Term RE: −3.20%
  Stability Long-Term RE: −3.16%
[2]; medium QC (320 or 160 ng/mL)
  Stability 3-Freeze-Thaw Cycles RE: −0.72%
  Stability Short-Term RE: −2.08%
  Stability Long-Term RE: −1.48%
[1]; male, BALB/c, mouse, in vivo
  time of highest plasma concentration, first peak: 0.167 h
  time of highest plasma concentration, second peak: 6 h
[1]; [4]
  drug-containing plasma content: 4725.60± 214.70
[1]; [5]
  drug-containing plasma content: 6986.86± 153.57
[1]; [6]
  drug-containing plasma content: 4610.60± 192.08
[1]; [7]
  drug-containing plasma content: 4344.98± 173.73
[1]; [8]
  drug-containing plasma content: 1590.11± 125.69
[1]; [9]
  drug-containing plasma content: 2934.42± 221.23
[1]; [10]
  drug-containing plasma content: 1037.07± 106.48
[1]; [11]
  drug-containing plasma content: 9344.98± 327.73
[1]; [12]
  drug-containing plasma content: 2958.20± 207.61
[1]; [13]
  drug-containing plasma content: 896.04± 55.63
[1]; [14]
  drug-containing plasma content: 47.32± 11.82
[1]; [15]
  drug-containing plasma content: 23.55± 2.60

## O=c1cc(-c2ccccc2)oc2c(O)c(O)cc(O)c12 [Norwogonin]
[2]; [16]
  Stability 3-Freeze-Thaw Cycles RE: 1.97%
  Stability Short-Term RE: −1.39%
  Stability Long-Term RE: 0.11%
[2]; low QC (12.5 or 25.6 ng/mL)
  Stability 3-Freeze-Thaw Cycles RE: −6.11%
  Stability Short-Term RE: −2.17%
  Stability Long-Term RE: −8.96%
[2]; medium QC (320 or 160 ng/mL)
  Stability 3-Freeze-Thaw Cycles RE: 7.06%
  Stability Short-Term RE: 0.74%
  Stability Long-Term RE: 3.74%
[1]; [3]
  time of highest plasma concentration, first peak: 0.167 h
  time of highest plasma concentration, second peak: 6 h
[1]; [17]
  drug-containing plasma content: 28.17± 2.96
[1]; [18]
  drug-containing plasma content: 94.18± 5.68
[1]; [19]
  drug-containing plasma content: 23.48± 0.05
[1]; [20]
  drug-containing plasma content: 13.88± 4.73
[1]; [21]
  drug-containing plasma content: 12.42± 7.14
[1]; [22]
  drug-containing plasma content: 0
[1]; [23]
  drug-containing plasma content: 14.29± 9.94
[1]; [24]
  drug-containing plasma content: 113.88± 4.73
[1]; [25]
  drug-containing plasma content: 21.94± 0.43
[1]; [26]
  drug-containing plasma content: 16.07± 3.80
[1]; [27]
  drug-containing plasma content: 0
[1]; [28]
  drug-containing plasma content: 0

## COc1c(O)cc2oc(-c3ccccc3)cc(=O)c2c1O [Oroxylin A]
[2]; [16]
  Stability 3-Freeze-Thaw Cycles RE: −5.29%
  Stability Short-Term RE: −4.07%
  Stability Long-Term RE: −7.03%
[2]; low QC (12.5 or 25.6 ng/mL)
  Stability 3-Freeze-Thaw Cycles RE: −4.26%
  Stability Short-Term RE: −3.30%
  Stability Long-Term RE: −6.71%
[2]; medium QC (320 or 160 ng/mL)
  Stability 3-Freeze-Thaw Cycles RE: −8.41%
  Stability Short-Term RE: −5.14%
  Stability Long-Term RE: −5.78%
[1]; [3]
  time of highest plasma concentration, first peak: 0.167 h
  time of highest plasma concentration, second peak: 6 h
[1]; [17]
  drug-containing plasma content: 13.47± 9.43
[1]; [18]
  drug-containing plasma content: 745.77± 35.54
[1]; [19]
  drug-containing plasma content: 63.52± 1.32
[1]; [20]
  drug-containing plasma content: 40.44± 4.81
[1]; [21]
  drug-containing plasma content: 160.88± 15.86
[1]; [22]
  drug-containing plasma content: 75.84± 5.43
[1]; [23]
  drug-containing plasma content: 486.23± 8.65
[1]; [24]
  drug-containing plasma content: 1063.52± 101.32
[1]; [25]
  drug-containing plasma content: 300.68± 17.25
[1]; [26]
  drug-containing plasma content: 19.18± 2.56
[1]; [27]
  drug-containing plasma content: 13.60± 7.94
[1]; [28]
  drug-containing plasma content: 0

## COc1c(OC2OC(C(=O)O)C(O)C(O)C2O)cc2oc(-c3ccccc3)cc(=O)c2c1O [Oroxylin A 7-O-beta-D-glucuronide]
[2]; [16]
  Stability 3-Freeze-Thaw Cycles RE: −0.56%
  Stability Short-Term RE: −0.23%
  Stability Long-Term RE: 0.55%
[2]; low QC (12.5 or 25.6 ng/mL)
  Stability 3-Freeze-Thaw Cycles RE: 6.23%
  Stability Short-Term RE: 7.34%
  Stability Long-Term RE: 7.73%
[2]; medium QC (320 or 160 ng/mL)
  Stability 3-Freeze-Thaw Cycles RE: 3.08%
  Stability Short-Term RE: 1.89%
  Stability Long-Term RE: 2.21%
[1]; [3]
  time of highest plasma concentration, first peak: 0.167 h
  time of highest plasma concentration, second peak: 6 h
[1]; [17]
  drug-containing plasma content: 462.93± 10.74
[1]; [18]
  drug-containing plasma content: 603.78± 13.98
[1]; [19]
  drug-containing plasma content: 143.83± 6.73
[1]; [20]
  drug-containing plasma content: 315.26± 12.78
[1]; [21]
  drug-containing plasma content: 138.74± 3.62
[1]; [22]
  drug-containing plasma content: 315.26± 12.78
[1]; [23]
  drug-containing plasma content: 412.32± 18.42
[1]; [24]
  drug-containing plasma content: 1008.71± 54.19
[1]; [25]
  drug-containing plasma content: 286.84± 8.27
[1]; [26]
  drug-containing plasma content: 160.51± 5.17
[1]; [27]
  drug-containing plasma content: 29.40± 0.71
[1]; [28]
  drug-containing plasma content: 0

From paper PMC10460054, “Multiplex Quantitative Analysis of 9 Compounds of Scutellaria baicalensis Georgi in the Plasma of Respiratory Syncytial Virus-Infected Mice Based on HPLC-MS/MS and Pharmacodynamic Effect Correlation Analysis” (Molecules, 2023)
